For data set [1], the target named is endothelin receptor. The data set is described as follows: Inhibition of endothelin-1 binding to endothelin receptor (125I-endothelin binding test, rabbit ventricular microsomal fraction). The conditions noted are these: 125I-endothelin-1 6×10^-11 M, 37° C., 90 minutes. Here is the method: Inhibition of endothelin-1 binding to endothelin receptor
(a) Preparation of rabbit ventricular microsomal fraction
Rabbit ventricular microsomal fraction was prepared by the method described in Methods in Enzymology, 109, 513 with a slight modification. The cardiac ventricular muscle excised from a 2 to 2.5 kg rabbit was minced in solution A (20 mM NaHCO3, 0.1 mM phenylmethylsulfonyl fluoride (PMSF)) and then homogenized using a Polytron PT-20, and centrifuged at 1500×g for 15 minutes. The supernatant was centrifuged at 45000×g for 15 minutes. The resulting sediment was suspended in solution B (50 mM Tris-HCl pH 7.4, 0.1 mM PMSF) and then re-centrifuged at 45000×g for 15 minutes. The sediment was again suspended in solution B and then centrifuged at 45000×g for 15 minutes. The sediment was re-suspended in solution B, and the suspension was frozen with liquid nitrogen and stored at -80° C. This series of operations was performed at 4° C. Protein contents was determined by Lowry's method.
(b) ^125 I-endothelin binding test
To 250 μl of a reaction solution (50 mM Tris-HCl, pH 7.4, 0.2% BSA (bovine serum albumin)), supplemented with 6×10^-11 M ^125 I-endothelin-1 (Amersham Japan) 50 μl of the ventricular microsomal fraction (20 μg) and a sample were added, followed by incubation at 37° C. for 90 minutes. The reaction mixture was then filtered through a GF/B glass filter (Millipore Japan), and the filter was washed with a 40-fold (12 ml) of the reaction solution. The radioactivity of the ^125 I-endothelin on the glass filter was determined using a gamma-ray counter. Nonspecific binding was defined as the amount of ^125 I-endothelin in the presence of 4×10^-7 M unlabelled endothelin-1 and was less than 8% of total binding. The specific binding was calculated as total binding minus nonspecific binding. Non-specific binding accounted for not higher than 8% of the total binding. The inhibitory rate of the compound is expressed as the concentration (IC50 M) required to cause a 50% reduction in the specific binding.

Data set [2] concerns swine coronary artery. Kind of data set: Inhibitory action on endothelin-1-induced constriction in swine coronary artery. It is filed as cell-based. The following applies: Sus scrofa, relaxation of maximum constriction induced by endothelin-1 (3×10^-9 M); for inhibition at 100 µM: compound 1 × 10^-4 M; for inhibition at 10 µM: compound 1 × 10^-5 M; for inhibition at 30 µM: compound 3 × 10^-5 M. Here is the method:
Inhibitory action on endothelin-1-induced constriction in swine coronary artery
After fat tissue removal, the swine left coronary arterial anterior descending branch (LAD) was isolated and vascular rings were prepared. These arterial rings kept at 37° C., were suspended in a 20 ml organ chamber filled with Krebs solution being aerated with 95% O2 /5% CO2 gas. Two grams of the tension was applied. After equilibration for 1 hr, 60 mMKCl was applied to condition the coronary rings. The test compound was tested for inhibition of the constriction induced by endothelin-1 (3×10^-9 M) by adding the test compound when the maximum of endothelin-1 induced constriction was reached. Activity is expressed as percent relaxation of the maximum constriction induced by endothelin-1. The developed tension of rings was reached isometrically.

In data set [3] the test system is bone resorption. Kind of data set: Inhibition of bone resorption (45Ca release from fetal rat forearm bones). Format: cell-based, rat (Sprague-Dawley). The conditions noted are these: 48 h, 10 μg/ml compound, two days of culture, read-out: Inhibition of Bone Resorption [45Ca released (percent ratio to control)]. Here is the method:
Inhibition of bone resorption
The inhibitory effect of compound on bone resorption was measured by the method of Rais 3 [Journal of Clinical Investigation, 44, 103-116 (1965)]. Specifically, one Sprague-Dawley rat, at 19 days of gestation, was given 50 μCi of ^45 Ca (calcium isotope, in CaCl2 solution) by subcutaneous injection. On the following day, fetal rats were aseptically taken out, both forearm bones (radius and ulna) were cut out from the body of each fetus, and connective tissue and cartilages were removed to maximum possible extent, to yield prepare bone culture samples. Each bone fragment was incubated at 37° C. for 24 hours in 0.6 ml of BGJb medium (Fitton-Jackson modification, produced by GIBCO Laboratories, United States) containing 2 mg/ml bovine serum albumin, after which it was cultured in the same medium as above but containing a 10 μg/ml compound for two more days. ^45 Ca radioactivity in the medium and ^45 Ca radioactivity in the bone were then measured, and the percent ratio of ^45 Ca released from the bone to the medium was calculated using the following equation: [formula]
For control, bone fractions from fetuses of the same litter were cultured for two days in the absence of the test compound. The mean ± standard deviation for the values from five bone fragments in each group were calculated, and their percent ratios to the control were calculated.

The test system of data set [4] is Cathepsin B. The data set is described as follows: Determination of cathepsin B inhibitory activity. Format: biochemical. The conditions noted are these: substrate Z-Phe-Arg-NH-Mec; pH 5.5; 37° C., 20 minutes. Here is the method: Determination of cathepsin B inhibitory activity
Cathepsin B (produced by Sigma) was diluted with 100 mM sodium acetate buffer (pH 5.5) to a concentration of 30 μg/ml. To 1 μl of this enzyme dilution, 46 μl of diluent, 2 μl of 0.1M DTT and 25 μl of activator/buffer (340 mM sodium acetate, 60 mM acetic acid, 4 mM EDTA disodium salt, pH 5.5) were added. To this mixture, a 1 μl sample, diluted to 10^-3 M with dimethylsulfoxide (DMSO), and 25 μl of 20 μM Z-Phe-Arg-NH-Mec (enzyme substrate solution) were added. After the mixture was incubated at 37° C. for 20 minutes, 100 μl of a stop solution (100 mM sodium monochloroacetate, 30 mM sodium acetate, pH 4.3) was added. The reaction was carried out on a 96-well fluoropiate (produced by Labo-Systems).
After the reaction was stopped, the absorbance of free aminomethylcoumarin was determined by excitation at 365 nm and emission at 450 nm, using Fluorescence Concentration Analyzer (produced by Baxter). One μl of sample-free DMSO was added for control, and the absorbance from reaction of this control was defined as 100% activity. For samples of under 10% residual activity, further dilutions were assayed for residual activity as described above to obtain the IC50 value.

Data set [5] deals with mice. The data set is described as follows: Toxicity in mice (deaths). Format: in vivo. The conditions noted are these: 300 mg/kg dose. Here is the method:
Although the daily dose varies depending on the condition and weight of the patient, kind of the compound, route of administration and other factors, it is administered parenterally, specifically subcutaneously, intravenously, intramuscularly or rectally at about 0.05 to 100 mg/kg/day, preferably 0.5 to 50 mg/kg/day as an endothelin receptor antagonist, about 0.1 to 100 mg/kg/day, preferably 1 to 50 mg/kg/day as a cathepsin B inhibitor and about 1 to 200 mg/kg/day, preferably 5 to 100 mg/kg/day as a bone resorption suppressor, respectively. For use as an oral agent, it is desirable to administer it at about 0.1 to 500 mg/kg/day, preferably 0.5 to 200 mg/kg/day as an endothelin receptor antagonist, about 1 to 500 mg/kg/day, preferably 10 to 300 mg/kg/day as a cathepsin B inhibitor and about 5 to 1000 mg/kg/day, preferably 10 to 300 mg/kg/day as a bone resorption suppressor, respectively.

By IC50 is commonly meant the concentration that gives 50% inhibition. A high value points to lower potency. For orientation: inhibition means the drop in the measured response relative to a control, in per cent. Low readings indicate a response near the control, high ones a response far below the control. `Cc1ccc(S(=O)(=O)N=c2nc3cc4c(cn3s2)CCCC4)cc1` [Example 12] showed an IC50 in data set [1] of 6.5 µM. In addition, in data set [2], the inhibition at 100 µM amounted to 62% and the inhibition at 10 µM is 14%.

In data set [1], `Cc1ccccc1S(=O)(=O)N=c1nc2cc3c(cn2s1)CCCC3` [Example 13] had an IC50 of 5.9 µM. In data set [2], this compound yielded an inhibition at 100 µM of 78% and an inhibition at 10 µM of 56%.

For the compound `O=S(=O)(N=c1nc2cc3c(cn2s1)CCCC3)c1ccccc1` [Example 14], the concentration for half-maximal inhibition (IC50) in data set [1] is 8.8 µM.

For the compound `CCc1sc2nc(=NS(=O)(=O)c3ccc(C)cc3)sn2c1-c1ccc2c(c1)CCCC2` [Example 20, 5-ethyl-2-(4-methylphenyl)sulfonylimino-6-(5,6,7,8-tetrahydro-2-naphthyl)-2H-thiazolo[3,2-b][1,2,4]thiadiazole], in data set [1], the IC50 amounted to 3 µM. In data set [2], this compound gave an inhibition at 100 µM of 68% and an inhibition at 10 µM of 11%.

Take `CCCc1sc2nc(=NS(=O)(=O)c3ccc(C)cc3)sn2c1-c1ccc2c(c1)CCCC2` [Example 23]: in data set [1], the 50% inhibitory concentration (IC50) was 2.5 µM.

`Cc1ccc(S(=O)(=O)N=c2nc3sc(C(C)C)c(-c4ccc5c(c4)CCCC5)n3s2)cc1` [Example 24] gave an IC50 in data set [1] of 2.5 µM. In data set [2], this compound gave an inhibition at 100 µM of 99% and an inhibition at 10 µM of 37%.

As to `Cc1ccc(S(=O)(=O)N=c2nc3sc(CC4CCCCC4)c(-c4ccc5c(c4)CCCC5)n3s2)cc1` [Example 25], the activity at 10 µg/mL in data set [3] amounted to 72%. For the same compound, half-maximal inhibition in data set [4] (IC50) was put at 1.2 µM.

Compound `CCOC(=O)Cc1sc2nc(=NS(=O)(=O)c3ccc(C)cc3)sn2c1-c1ccc2c(c1)CCCC2` [Example 26] gave a half-maximal inhibitory concentration (IC50) in data set [1] of 4 µM.

Turning to `CCNC(=O)Cc1sc2nc(=NS(=O)(=O)c3ccc(C)cc3)sn2c1-c1ccc2c(c1)CCCC2` [Example 31], half-maximal inhibition in data set [4] (IC50) required 2.9 µM.

For the compound `Cc1ccc(NC(=O)Cc2sc3nc(=NS(=O)(=O)c4ccc(C)cc4)sn3c2-c2ccc3c(c2)CCCC3)cc1` [Example 34], in data set [3], the activity at 10 µg/mL amounted to 75%. Moreover, the IC50 in data set [4] was 9.3 µM.

For `CCc1sc2nc(=NS(=O)(=O)c3ccc(C)cc3)sn2c1CC(=O)NCC1CCCCC1` [Example 65], the activity at 10 µg/mL in data set [3] stood at 74%.

`Cc1ccccc1S(=O)(=O)N=c1nc2sc(C)c(-c3ccc(C4CCCCC4)cc3)n2s1` [Example 73] registered a concentration for half-maximal inhibition (IC50) in data set [1] of 7.3 µM.

`CCS(=O)(=O)N=c1nc2sc(C)c(-c3ccc(C4CCCCC4)cc3)n2s1` [Example 82] returned a half-maximal inhibitory concentration (IC50) in data set [1] of 7.5 µM.

As for `Cc1sc2nc(=NS(=O)(=O)Cc3ccccc3)sn2c1-c1ccc(C2CCCCC2)cc1` [Example 83], in data set [1], the IC50 amounted to 6 µM. Besides, the deaths result in data set [5] is listed as “no deaths occurred”.

In the case of `CCNC(=O)CCc1sc2nc(=NS(=O)(=O)c3ccc(C)cc3)sn2c1-c1ccc2c(c1)CCCC2` [Example 94], the activity at 10 µg/mL in data set [3] came out at 76%.

As to `CCOC(=O)CCC(NC(=O)CCc1sc2nc(=NS(=O)(=O)c3ccc(C)cc3)sn2c1-c1ccc2c(c1)CCCC2)C(=O)OCC` (stereo not shown) [Example 96], in data set [3], the activity at 10 µg/mL turned out to be 81%. In data set [4], this compound displayed an IC50 of 1.9 µM.

For the compound `CCOC(=O)CCCc1sc2nc(=NS(=O)(=O)c3ccc(C)cc3)sn2c1-c1ccc(C2CCCCC2)cc1` [Example 98], in data set [3], the activity at 10 µg/mL is 87%. The compound also gave a half-inhibitory concentration (IC50) in data set [4] of 3.5 µM.

As for `CCc1sc2nc(=NS(=O)(=O)c3ccc(C)cc3)sn2c1-c1ccc(C2CCCCC2)cc1` [Example 99], in data set [1], the IC50 was 2.1 µM.

Compound `CCCCOc1ccc(-c2c(CC)sc3nc(=NS(=O)(=O)c4ccc(C)cc4)sn23)cc1` [Example 104] returned a concentration for half-maximal inhibition (IC50) in data set [1] of 2.7 µM.

Regarding `CCc1sc2nc(=NS(=O)(=O)c3ccc(C)cc3)sn2c1-c1cn(C)c2ccccc12` [Example 106], the half-inhibitory concentration (IC50) in data set [1] came out at 4.2 µM.

For the compound `Cc1sc2nc(=NS(=O)(=O)c3cccnc3)sn2c1-c1ccc(C2CCCCC2)cc1` [Example 108], the activity at 10 µg/mL in data set [3] was 85%. The compound also returned an IC50 in data set [4] of 1.1 µM.

For `CCCS(=O)(=O)N=c1nc2sc(C)c(-c3ccc(C4CCCCC4)cc3)n2s1` [Example 111], in data set [1], the IC50 came to 6.1 µM. For the same compound, the activity at 10 µg/mL in data set [3] stood at 75%. In data set [2], this compound showed an inhibition at 10 µM of 40% and an inhibition at 30 µM of 78%.

In data set [1], `CCCCCCCCS(=O)(=O)N=c1nc2sc(C)c(-c3ccc(C4CCCCC4)cc3)n2s1` [Example 112] had an IC50 of 5.2 µM. In data set [2], this compound showed an inhibition at 10 µM of 35% and an inhibition at 30 µM of 83%.

Turning to `CCc1sc2nc(=NS(=O)(=O)c3ccc(F)cc3)sn2c1-c1ccc(C2CCCCC2)cc1` [Example 114], in data set [1], the IC50 came out at 3.8 µM. In data set [2], the inhibition at 10 µM was determined as 44% and at 30 µM the inhibition was 75%.

For `CCc1sc2nc(=NS(=O)(=O)CC(C)(C)CO)sn2c1-c1ccc(C2CCCCC2)cc1` [Example 115], in data set [3], the activity at 10 µg/mL came out at 85%.

The values above are taken from patent US5550138A, “Condensed thiadiazole derivative, method of its production, and use thereof” (Takeda Chemical Industries, Ltd., priority 1992, dated 1996).
